Laboratory results published in patent US5545667A, “Methods for treating neoplasms with betaines” (The Clorox Company, priority 1994, dated 1996).
Structures can show the parent of a compound that is named as a salt. Where two headings read alike, the source gives them in different places.

How the values were obtained:
PAM 212 cells = assay: Cell growth inhibition assay (surfactants, 3-4 days, Coulter counter), PAM 212; type: cell-based, mouse
Method: (§1) Established cell lines are the system of choice for the prescreening of unknown compounds for antineoplastic activity. The tumor cell line screen works on the following principle. Cancer cells, if provided with enough nutrients, will grow unchecked in vitro, allowing researchers to grow many types of cancer cells outside the body. To perform an assay, standard amounts of the various cancer cells are placed in individual wells of a microtiter plate, and incubated with the potential antineoplastic compound of interest, for a sufficient period of time to allow for at least a 6-fold control growth, generally 1 to 5 days depending on cell origin. At the end of the incubation period, the cell lines are stained and assayed by a variety of means including, for example, proteins stains or a colorimeter for normal growth, growth inhibition or cytotoxicity. These assays measure a compound's ability to inhibit cell growth and a positive response of the compounds in these assays would be indicative of the therapeutic potential of these compounds. See, for example, the protocols and data presented in Laskin et al., (1979) Cancer Res 39:383-390 for 5-fluorouracil in mouse and human cells in culture.
(§2) A total of ten cell lines were used to evaluate the growth inhibitory potency of the various surfactants. In these studies, human, rat, mouse and bovine cells were used. A spectrum of different tumor cell types were used including those derived from keratinocytes (PAM 212), leukemias (HL-60, U-937 and K-562), an epitheloid carcinoma (HeLa) and melanoma (B-16). The B16 melanoma was used since this is a common cell type used to evaluate antimetastatic activity of test compounds. The effect of the surfactants on three fibroblast cell lines (C3H 10T1/2, NIH 3T3 and R6) were also evaluated for comparison to the tumor cell lines. The activity of the surfactants was also evaluated using pulmonary aortic endothelial cells for effectiveness as antiangiogenic agents.
(§3) PAM 212 cells are a mouse keratinocyte-derived tumor cell line. U-937 cells are a human histiocytic tumor cell line. HeLa cells are an epitheloid tumor cell line. Three murine fibroblast cells lines tested included the mouse fibroblast cell line, C3H 10T1/2, the rat fibroblast cell line R6, and the NIH 3T3 mouse fibroblast cell line. The human leukemia cell line HL-60 and the mouse melanoma B-16 cell were also tested. K-562 cells were from the American Type Culture Collection. All cells were grown in Dulbecco's modified Eagle's medium in a 37° C. incubator in an atmosphere of 5% CO2.
(§4) For growth inhibition assays, cells were seeded at low density (2.5×10^4 cells in 0.5 ml of culture medium) into 24-well tissue culture plates (Falcon Labware, Lincoln Park, N.J.). After 24 hours at 37° C., increasing concentrations (1 to 100 uM) of the surfactants were added to the cells in the culture plate. Control cultures were incubated in the absence of any surfactant. The cells were then incubated for 3-4 days to allow for growth. Cells from individual wells in the culture plate were then removed and duplicate samples taken for counting using a Coulter counter. To remove adherent cells the plates were treated with 0.25% trypsin/0.2% EDTA (GIBCO, Grand Island, N.Y.).

U-937 cells = assay: Cell growth inhibition assay, U-937; type: cell-based; conditions: Homo sapiens
Method: as §1, §2, §3, §4

HeLa cells = assay: Cell growth inhibition assay, HeLa; type: cell-based; conditions: read-out: IC50 (uM conc. inhibiting growth of the cells by 50%)
Method: as §1, §2, §3, §4

C3H 10T1/2 cells = assay: Cell growth inhibition assay, C3H 10T1/2; type: cell-based, mouse
Method: as §1, §2, §3, §4

HL-60 cells = assay: Cell growth inhibition assay, HL-60; type: cell-based, human
Method: as §1, §2, §3, §4

NIH 3T3 cells = assay: Cell growth inhibition assay, NIH 3T3; type: cell-based, mouse
Method: as §1, §2, §3, §4

K-562 cells = assay: Cell growth inhibition assay, K-562; type: cell-based; conditions: Homo sapiens
Method: as §1, §2, §3, §4

B-16 cells = assay: Cell growth inhibition assay, B-16 melanoma; type: cell-based, mouse
Method: as §1, §2, §3, §4

R6 cells = assay: Cell growth inhibition assay, R6; type: cell-based, rat; conditions: Fibroblast, read-out: IC50 (uM conc. inhibiting growth of the cells by 50%)
Method: as §1, §2, §3, §4

CPA-5 cells = assay: Cell growth inhibition assay, CPA-5 endothelial cells; type: cell-based, bovine; conditions: Bos taurus, read-out: IC50 (uM conc. inhibiting growth of the cells by 50%)
Description: as §2, §3, §4
The compounds were tested as inhibitors of growth in the bovine aortic endothelial cell line CPA-5 as taught in Example 2 in order to evaluate the possibility that they may be anti-angiogenesis agents. A hallmark of angiogenesis is the outgrowth of endothelial cells which are required in the formation of new blood vessels. This process is a critical factor in the vascularization of tumors. Inhibition of neovascularization limits the growth of tumors and would be an effective means of treating cancer. FIG. 3 illustrates that three of the compounds, 8-3S, 12-5B and 12-1B, had no activity against the CPA-5 cell line in the concentration range tested (IC50 =>100 uM), while only relatively high concentrations of 12-3S (IC50 =70 uM) were effective in inhibiting the growth of CPA-5 cells. As indicated above, with several exceptions, these compounds were also not very effective in inhibiting the growth of each of the other cell types.

[1] = Critical micelle concentration (cmc); type: physicochemical
Description: "Critical micelle concentration" or "cmc" refers to the point at which micelle formation begins.

liver = conditions: rats fed ethionine; cited from earlier work
battery of cell lines = conditions: 1988 report; cited from earlier work
ten cell lines = assay: Cell growth inhibition assays, panel of cell lines; type: cell-based, human, rat, mouse and bovine
Description: as §2, §3, §4

[2] = PAM212, PAM 212 mouse keratinocyte-derived tumor cells, 3-4 days, read-out: IC50 (uM conc. inhibiting growth of the cells by 50%)
[3] = U-937, U-937 human histiocytic tumor cells, 3-4 days, read-out: IC50 (uM conc. inhibiting growth of the cells by 50%)
[4] = Homo sapiens, HeLa, HeLa cells, 3-4 days
[5] = C3H 10T1/2 mouse fibroblasts, 3-4 days, read-out: IC50 (uM conc. inhibiting growth of the cells by 50%)
[6] = HL-60 human leukemia cells, 3-4 days, read-out: IC50 (uM conc. inhibiting growth of the cells by 50%)
[7] = NIH3T3, NIH 3T3 mouse fibroblasts, 3-4 days, read-out: IC50 (uM conc. inhibiting growth of the cells by 50%)
[8] = K562, K-562 leukemia cells, 3-4 days, read-out: IC50 (uM conc. inhibiting growth of the cells by 50%)
[9] = B16, B-16 mouse melanoma cells, 3-4 days, read-out: IC50 (uM conc. inhibiting growth of the cells by 50%)
[10] = CPA-5 bovine aortic endothelial cells, 3-4 days
[11] = U-937, read-out: IC50 (uM conc. inhibiting growth of the cells by 50%)
[12] = Mus musculus, C3H 10T1/2, read-out: IC50 (uM conc. inhibiting growth of the cells by 50%)
[13] = Homo sapiens, HL-60, read-out: IC50 (uM conc. inhibiting growth of the cells by 50%)
[14] = Mus musculus, NIH3T3, read-out: IC50 (uM conc. inhibiting growth of the cells by 50%)
[15] = K562, read-out: IC50 (uM conc. inhibiting growth of the cells by 50%)
[16] = Mus musculus, B16, read-out: IC50 (uM conc. inhibiting growth of the cells by 50%)

Row | Structure (SMILES) | IC50 (U-937 cells; [3]) [µM] | IC50 (HeLa cells; [4]) [µM] | IC50 (HL-60 cells; [6]) [µM] | IC50 (K-562 cells; [8]) [µM] | IC50 (B-16 cells; [9]) [µM] | cmc [1] | IC50 (PAM 212 cells; [2]) [µM] | IC50 (C3H 10T1/2 cells; [5]) [µM] | IC50 (NIH 3T3 cells; [7]) [µM] | IC50 (R6 cells; R6 rat fibroblasts, 3-4 days) [µM] | IC50 (CPA-5 cells; [10]) [µM] | also measured
1 | C[N+](C)(C)CC(=O)O [betaine] | – | – | – | – | – | – | – | – | – | – | – | prevention of chronic morphological changes in the liver, including cancer formation (liver): relatively effective in preventing chronic morphological changes in the liver, including cancer formation
2 | CCCCCCCCCCCC[N+](C)(C)CC(=O)[O-] [12-1B, N-(carboxymethyl)-N,N-dimethyl-1-dodecanaminium hydroxide inner salt] | – | – | – | – | – | 2,400 uM | – | – | – | – | – | IC50 (U-937 cells; [11]): > 100 µM; IC50 (HeLa cells; Homo sapiens, HeLa): 39 µM; IC50 (C3H 10T1/2 cells; [12]): > 100 µM; IC50 (HL-60 cells; [13]): 37 µM; IC50 (NIH 3T3 cells; [14]): > 100 µM; IC50 (K-562 cells; [15]): 19 µM; IC50 (B-16 cells; [16]): 90 µM; IC50 (R6 cells; Rattus norvegicus): > 100 µM; IC50 (CPA-5 cells): > 100 µM; inhibition and toxicity at the concentrations tested (battery of cell lines): inhibitory and toxic
3 | CCCCCCCCCCCCCCCC[N+](C)(C)CC(=O)[O-] [16-1B, N-(carboxymethyl)-N,N-dimethyl-1-hexadecanaminium hydroxide inner salt] | – | – | – | – | – | 14 µM | – | – | – | – | – | IC50 (PAM 212 cells; Mus musculus, PAM212, read-out: IC50 (uM conc. inhibiting growth of the cells by 50%)): 50 µM; IC50 (U-937 cells; [11]): 23 µM; IC50 (HeLa cells; Homo sapiens, HeLa): 16 µM; IC50 (C3H 10T1/2 cells; [12]): 54 µM; IC50 (HL-60 cells; [13]): 8 µM; IC50 (NIH 3T3 cells; [14]): 60 µM; IC50 (K-562 cells; [15]): 32 µM; IC50 (B-16 cells; [16]): 52 µM; IC50 (R6 cells; Rattus norvegicus): 45 µM; IC50 (CPA-5 cells): 30 µM; activity against all of the cell lines tested (ten cell lines; growth inhibition): effective against all of the cell lines
4 | CCCCCCCC[N+](C)(C)CCCS(=O)(=O)[O-] [8-3S, N-octyl-N, N-dimethyl-3-ammonio-1-propanesulfonate] | > 100 | > 100 | > 100 | > 100 | > 100 | 200,000 uM | > 100 | > 100 | > 100 | 78 | > 100 | IC50 (ten cell lines; all / all other cell lines tested, read-out: IC50 over the cell lines tested (range or bound)): > 100 µM

More lines, main results first:

Row | IC50 (U-937 cells; [3]) [µM] | IC50 (HeLa cells; [4]) [µM] | IC50 (HL-60 cells; [6]) [µM] | IC50 (K-562 cells; [8]) [µM] | IC50 (B-16 cells; [9]) [µM] | cmc [1] | Structure (SMILES) | IC50 (PAM 212 cells; [2]) [µM] | IC50 (C3H 10T1/2 cells; [5]) [µM] | IC50 (NIH 3T3 cells; [7]) [µM] | IC50 (R6 cells; R6 rat fibroblasts, 3-4 days) [µM] | IC50 (CPA-5 cells; [10]) [µM] | also measured
5 | 6 | 2.2 | 1.6 | 15 | 54 | 28 µM | CCCCCCCCCCCCCCCC[N+](C)(C)CCCS(=O)(=O)[O-] [16-3S, N-hexadecyl-N,N-dimethyl-3-ammonio-1-propanesulfonate] | 7.5 | 3.3 | 40 | 14 | 17 | –
6 | > 100 | 75 | 11 | > 100 | > 100 | 5,100 uM | CCCCCCCCCCCC[N+](C)(C)CCCCCC(=O)[O-] [12-5B, N-(5-carboxypentyl)-N,N-dimethyl-1-dodecanaminium hydroxide inner salt] | 60 | > 100 | > 100 | 78 | > 100 | –
7 | > 100 | 68 | 9.3 | > 100 | > 100 | 2,200 uM | CCCCCCCCCCCC[N+](C)(C)CCCS(=O)(=O)[O-] [12-3S, N-dodecyl-N,N-dimethyl-3-ammonio-1-propanesulfonate] | 3 | 6.5 | > 100 | 45 | 70 | IC50 (HeLa cells; HeLa cells, 3-4 days): 58 µM; inhibition and toxicity at the concentrations tested (battery of cell lines): noninhibitory and nontoxic
